In patent publication US10214508B2, “Nitrogen-containing heterocyclic compound” (Takeda Pharmaceutical Company Limited, priority 2014, dated 2019):

Target: T1, human M1 receptor (hCHRM1) (Homo sapiens, UniProt P11229)
T1 construct: expressed in transfected cells
T1 sequence (P11229 1-460): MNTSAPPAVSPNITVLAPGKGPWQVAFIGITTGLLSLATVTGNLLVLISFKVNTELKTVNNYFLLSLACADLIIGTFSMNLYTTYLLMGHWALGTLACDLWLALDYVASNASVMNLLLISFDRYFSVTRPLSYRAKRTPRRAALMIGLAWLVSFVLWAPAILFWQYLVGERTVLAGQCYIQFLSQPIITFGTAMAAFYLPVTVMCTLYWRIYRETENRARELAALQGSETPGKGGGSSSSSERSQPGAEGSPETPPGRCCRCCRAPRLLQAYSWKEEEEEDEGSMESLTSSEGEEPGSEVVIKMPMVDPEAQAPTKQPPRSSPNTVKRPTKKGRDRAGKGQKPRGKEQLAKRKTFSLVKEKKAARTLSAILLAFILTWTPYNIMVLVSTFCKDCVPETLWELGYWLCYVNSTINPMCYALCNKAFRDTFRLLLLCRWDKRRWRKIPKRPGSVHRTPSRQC
Assay: Measurement of M1 receptor positive allosteric modulator (M1PAM) activity, calcium fluorescence (FLIPRtetra)
Type: cell-based
Conditions: 10 μM test compound with acetylcholine at EC20 (final 0.6-0.8 nM); 100% = acetylcholine 1 μM, 0% = DMSO; CHO-K1 cells expressing hCHRM1
Protocol: Measurement of M1 Receptor Positive Allosteric Modulator (M1PAM) Activity
The activity of a test compound in the presence of acetylcholine at EC20 concentration (final concentration 0.6-0.8 nM), which affords an action corresponding to about 20% of the maximum activity, was measured as PAM activity. The method is as follows. CHO-K1 cells stably expressing a human M1 receptor (hCHRM1) were plated on a 384-well black clear bottom plate (BD Falcon) at 5,000 cells/well, and cultured in an incubator at 37° C., 5% CO2 for 1 day. The medium in the cell plate was removed, and assay buffer A containing calcium indicator (Recording medium (DOJINDO LABORATORIES), 0.1% BSA (Wako Pure Chemical Industries, Ltd.), 2.5 μg/mL Fluo-4 AM (DOJINDO LABORATORIES), 0.08% Pluronic F127 (DOJINDO LABORATORIES), 1.25 mM probenecid (DOJINDO LABORATORIES)) was added at 30 μL/well. The cells were left standing in the incubator at 37° C., 5% CO2 for 30 min, and further left standing at room temperature for 30 min. A test compound prepared by diluting with assay buffer B (HBSS (Invitrogen), 20 mM HEPES (Invitrogen), 0.1% BSA) containing 2.4-3.2 nM acetylcholine was added at 10 μL/well, and the fluorescence was measured by FLIPRtetra (Molecular Devices) for 1 min every for 1 second. With the definition that the amount of change in the fluorescence on addition of acetylcholine (final concentration 1 μM) is 100% and that on addition of DMSO instead of a test compound is 0%, the activity (%) of the test compound was calculated, and the inflection point in the concentration-dependent curve of the test compound was calculated as IP values.

Cc1nc(C(=O)N[C@H]2CCCC[C@@H]2O)cc(Cc2ccc(-c3cnn(C)c3)nc2)c1C [Example 80, N-((1S,2S)-2-hydroxycyclohexyl)-5,6-dimethyl-4-((6-(1-methyl-1H-pyrazol-4-yl)pyridin-3-yl)methyl)pyridine-2-carboxamide]
activity (%) at 10 μM: 84%

Cc1nc(C(=O)N[C@H]2CCC[C@@H]2O)cc(Cc2ccc(-n3cccn3)cc2)c1C [Example 75, N-((1S,2S)-2-hydroxycyclopentyl)-5,6-dimethyl-4-(4-(1H-pyrazol-1-yl)benzyl)pyridine-2-carboxamide]
activity (%) at 10 μM: 102%

Cc1nc(C(=O)N[C@H]2COCC[C@@H]2O)cc(Cc2ccc(-n3cccn3)cc2)c1C [Example 78, 1,5-anhydro-2,4-dideoxy-2-(((5,6-dimethyl-4-(4-(1H-pyrazol-1-yl)benzyl)pyridin-2-yl)carbonyl)amino)-L-threo-pentitol]
activity (%) at 10 μM: 104%

O=C(N[C@H]1CCCC[C@@H]1O)c1cc(Cc2ccc(-n3cccn3)cc2)c(C2CC2)cn1 [Example 46, 5-cyclopropyl-N-((1S,2S)-2-hydroxycyclohexyl)-4-(4-(1H-pyrazol-1-yl)benzyl)pyridine-2-carboxamide]
activity (%) at 10 μM: 101%

Cn1ccc(-c2ccc(Cc3cc(C(=O)N[C@H]4CCCC[C@@H]4O)ncc3Cl)cc2)n1 [Example 51, 5-chloro-N-((1S,2S)-2-hydroxycyclohexyl)-4-(4-(1-methyl-1H-pyrazol-3-yl)benzyl)pyridine-2-carboxamide]
activity (%) at 10 μM: 95%

Cc1nc(C(=O)N[C@H]2CCCC[C@@H]2O)cc(Cc2ccc(C#N)nc2)c1Cl [Example 104, 5-chloro-4-((6-cyanopyridin-3-yl)methyl)-N-((1S,2S)-2-hydroxycyclohexyl)-6-methylpyridine-2-carboxamide]
activity (%) at 10 μM: 102%

C=Cc1cnc(C(=O)N[C@H]2CCCC[C@@H]2O)cc1Cc1ccc(-n2cccn2)cc1 [Example 42, N-((1S,2S)-2-hydroxycyclohexyl)-4-(4-(1H-pyrazol-1-yl)benzyl)-5-vinylpyridine-2-carboxamide]
activity (%) at 10 μM: 106%

Cc1nc(C(=O)N[C@H]2CCC[C@@H]2O)cc(Cc2ccc(-c3ccn(C)n3)nc2)c1C [Example 117, N-((1S,2S)-2-hydroxycyclopentyl)-5,6-dimethyl-4-((6-(1-methyl-1H-pyrazol-3-yl)pyridin-3-yl)methyl)pyridine-2-carboxamide]
activity (%) at 10 μM: 106%

Cc1cnc(C(=O)NC2CCOC2)cc1Cc1ccc(-c2ccn(C)n2)cc1 (centres unmarked) [Example 31, 5-methyl-4-(4-(1-methyl-1H-pyrazol-3-yl)benzyl)-N-(tetrahydrofuran-3-yl)pyridine-2-carboxamide]
activity (%) at 10 μM: 84%

Cc1nc(C(=O)N[C@H]2CCCC[C@@H]2O)cc(Cc2ccc(-n3cccn3)cc2)c1C [Example 76, N-((1S,2S)-2-hydroxycyclohexyl)-5,6-dimethyl-4-(4-(1H-pyrazol-1-yl)benzyl)pyridine-2-carboxamide]
activity (%) at 10 μM: 92%

Cn1ccc(-c2ccc(Cc3cc(C(=O)N[C@H]4CCCC[C@@H]4O)ncc3Cl)cc2)n1 [Example 52, 5-chloro-N-((1S,2S)-2-hydroxycyclohexyl)-4-(4-(1-methyl-1H-pyrazol-3-yl)benzyl)pyridine-2-carboxamide]
activity (%) at 10 μM: 100%

Cc1cnc(C(=O)N[C@H]2COCC[C@@H]2O)cc1Cc1ccc(-n2cccn2)cc1 [Example 49, 1,5-anhydro-2,4-dideoxy-2-(((5-methyl-4-(4-(1H-pyrazol-1-yl)benzyl)pyridin-2-yl)carbonyl)amino)-L-threo-pentitol]
activity (%) at 10 μM: 99%

Cc1cnc(C(=O)N[C@H]2COCC[C@@H]2O)cc1Cc1ccc(-n2cccn2)cc1F [Example 36, 1,5-anhydro-2,4-dideoxy-2-(((4-(2-fluoro-4-(1H-pyrazol-1-yl)benzyl)-5-methylpyridin-2-yl)carbonyl)amino)-L-threo-pentitol]
activity (%) at 10 μM: 95%

Cc1cnc(C(=O)N[C@H]2CCCC[C@@H]2O)cc1Cc1ccc(-c2ccn(C)n2)cc1F [Example 10, 4-(2-fluoro-4-(1-methyl-1H-pyrazol-3-yl)benzyl)-N-((1S,2S)-2-hydroxycyclohexyl)-5-methylpyridine-2-carboxamide]
activity (%) at 10 μM: 89%

COc1cnc(C(=O)N[C@H]2COCC[C@@H]2O)cc1Cc1ccc(-n2cccn2)cc1 [Example 56, 1,5-anhydro-2,4-dideoxy-2-(((5-methoxy-4-(4-(1H-pyrazol-1-yl)benzyl)pyridin-2-yl)carbonyl)amino)-L-threo-pentitol]
activity (%) at 10 μM: 103%

Cc1nc(C(=O)N[C@H]2COCC[C@@H]2O)cc(Cc2ccc(-n3cccn3)cc2)c1C#N [Example 113, 1,5-anhydro-2-(((5-cyano-6-methyl-4-(4-(1H-pyrazol-1-yl)benzyl)pyridin-2-yl)carbonyl)amino)-2,4-dideoxy-L-threo-pentitol]
activity (%) at 10 μM: 94%

O=C(N[C@H]1CCCC[C@@H]1O)c1cc(Cc2ccc(-n3cccn3)cc2F)c(Cl)cn1 [Example 54, 5-chloro-4-(2-fluoro-4-(1H-pyrazol-1-yl)benzyl)-N-((1S,2S)-2-hydroxycyclohexyl)pyridine-2-carboxamide]
activity (%) at 10 μM: 99%

COC1CCCCC1NC(=O)c1cc(Cc2ccc(-c3ccn(C)n3)cc2)c(C)cn1 (centres unmarked) [Example 18, N-(2-methoxycyclohexyl)-5-methyl-4-(4-(1-methyl-1H-pyrazol-3-yl)benzyl)pyridine-2-carboxamide]
activity (%) at 10 μM: 105%

Cc1cnc(C(=O)NC2(CO)CCCC2)cc1Cc1ccc(-c2ccn(C)n2)cc1 [Example 20, N-(1-(hydroxymethyl)cyclopentyl)-5-methyl-4-(4-(1-methyl-1H-pyrazol-3-yl)benzyl)pyridine-2-carboxamide]
activity (%) at 10 μM: 75%

COc1cnc(C(=O)N[C@H]2CCC[C@@H]2O)cc1Cc1ccc(-n2cccn2)cc1 [Example 60, N-((1S,2S)-2-hydroxycyclopentyl)-5-methoxy-4-(4-(1H-pyrazol-1-yl)benzyl)pyridine-2-carboxamide]
activity (%) at 10 μM: 87%

Cc1cnc(C(=O)NC2CC(F)(F)C2)cc1Cc1ccc(-c2ccn(C)n2)cc1 [Example 30, N-(3,3-difluorocyclobutyl)-5-methyl-4-(4-(1-methyl-1H-pyrazol-3-yl)benzyl)pyridine-2-carboxamide]
activity (%) at 10 μM: 85%

COc1cnc(C(=O)N[C@H]2CCCC[C@@H]2O)cc1Cc1ccc(Br)cc1 [Example 62, 4-(4-bromobenzyl)-N-((1S,2S)-2-hydroxycyclohexyl)-5-methoxypyridine-2-carboxamide]
activity (%) at 10 μM: 96%

Cc1cnc(C(=O)NC2COC2)cc1Cc1ccc(-c2ccn(C)n2)cc1 [Example 26, 5-methyl-4-(4-(1-methyl-1H-pyrazol-3-yl)benzyl)-N-(oxetan-3-yl)pyridine-2-carboxamide]
activity (%) at 10 μM: 59%

O=C(N[C@H]1CCCC[C@@H]1O)c1cc(Cc2ccc(-n3cccn3)cc2)c(F)cn1 [Example 55, 5-fluoro-N-((1S,2S)-2-hydroxycyclohexyl)-4-(4-(1H-pyrazol-1-yl)benzyl)pyridine-2-carboxamide]
activity (%) at 10 μM: 97%

Cc1cnc(C(=O)N[C@H]2CCCC[C@@H]2O)cc1Cc1ccc(-n2cccn2)cc1 (relative stereo) [Example 4, N-(trans-2-hydroxycyclohexyl)-5-methyl-4-(4-(1H-pyrazol-1-yl)benzyl)pyridine-2-carboxamide]
activity (%) at 10 μM: 98%

Cc1cnc(C(=O)N[C@H]2CCC[C@@H]2O)cc1Cc1ccc(-n2cccn2)cc1 [Example 50, N-((1S,2S)-2-hydroxycyclopentyl)-5-methyl-4-(4-(1H-pyrazol-1-yl)benzyl)pyridine-2-carboxamide]
activity (%) at 10 μM: 105%
